# Organism: Rattus norvegicus
# Assay: DrugMatrix - Regimen: Daily Repeat
# Type: toxicity, organism-based, Sprague-Dawley
# Design: regimen Daily Repeat, gender Male, age 6-8 weeks
# Settings: in vivo, po, route oral GAVAGE, […]; for ABSOLUTE BASOPHIL / ABSOLUTE EOSINOPHIL / ABSOLUTE LYMPHOCYTE / ABSOLUTE MONOCYTE / ABSOLUTE SEGMENTED NEUTROPHIL / BASOPHIL / EOSINOPHIL / ERYTHROCYTE COUNT / HEMATOCRIT / HEMOGLOBIN / LEUKOCYTE COUNT / LYMPHOCYTE / MEAN CORPUSCULAR HEMOGLOBIN / MEAN CORPUSCULAR HEMOGLOBIN CONCENTRATION / MEAN CORPUSCULAR VOLUME / MONOCYTE / NEUTROPHIL / NUCLEATED RED BLOOD CELLS / PLATELET COUNT: tissue Blood; for ALANINE AMINOTRANSFERASE / ALBUMIN / ALKALINE PHOSPHATASE / ASPARTATE AMINOTRANSFERASE / BLOOD UREA NITROGEN / CARBON DIOXIDE / CHLORIDE / CHOLESTEROL / CREATINE PHOSPHOKINASE / CREATININE / GLUCOSE / LACTATE DEHYDROGENASE / LIPASE / PHOSPHORUS / POTASSIUM / SODIUM / TOTAL BILIRUBIN / TOTAL PROTEIN / URIC ACID: tissue Plasma
# [1] = 2 mg/kg, 120 h, dose level High, time 5 day
# [2] = 72 h, dose 0.58 mg/Kg, dose level Low, time 3 day
# [3] = 120 h, dose 0.58 mg/Kg, dose level Low, time 5 day
compound,measurement,setting,value
COc1ccc2c(c1)c(CC(=O)OCC(=O)O)c(C)n2C(=O)c1ccc(Cl)cc1 [ACEMETACIN],ABSOLUTE BASOPHIL,[1],0 CELLS/uL
same,ABSOLUTE EOSINOPHIL,[1],198 CELLS/uL
same,ABSOLUTE LYMPHOCYTE,[1],16941.67 CELLS/uL
same,ABSOLUTE MONOCYTE,[1],330.33 CELLS/uL
same,ABSOLUTE SEGMENTED NEUTROPHIL,[1],2163.33 CELLS/uL
same,BASOPHIL,[1],0%
same,EOSINOPHIL,[1],1%
same,ERYTHROCYTE COUNT,[1],6.35 x10E6/uL
same,HEMATOCRIT,[1],38.5%
same,HEMOGLOBIN,[1],14.23 G/DL
same,LEUKOCYTE COUNT,[1],19.63 x10E3/uL
same,LYMPHOCYTE,[1],86.33%
same,MEAN CORPUSCULAR HEMOGLOBIN,[1],22.47 pg
same,MEAN CORPUSCULAR HEMOGLOBIN CONCENTRATION,[1],36.97 G/DL
same,MEAN CORPUSCULAR VOLUME,[1],60.67 fL
same,MONOCYTE,[1],1.67%
same,NEUTROPHIL,[1],11%
same,NUCLEATED RED BLOOD CELLS,[1],0 /100WBC
same,PLATELET COUNT,[1],1196 x10E3/uL
same,ALANINE AMINOTRANSFERASE,[1],77 u/L
same,ALBUMIN,[1],4.33 G/DL
same,ALKALINE PHOSPHATASE,[1],434 u/L
same,ASPARTATE AMINOTRANSFERASE,[1],106.33 u/L
same,BLOOD UREA NITROGEN,[1],15.33 mg/dL
same,CARBON DIOXIDE,[1],26 mmol/L
same,CHLORIDE,[1],102 MEQ/L
same,CHOLESTEROL,[1],58 mg/dL
same,CREATINE PHOSPHOKINASE,[1],673.33 u/L
same,CREATININE,[1],0.19 mg/dL
same,GLUCOSE,[1],155.33 mg/dL
same,LACTATE DEHYDROGENASE,[1],783.33 u/L
same,LIPASE,[1],10 u/L
same,PHOSPHORUS,[1],11.9 mg/dL
same,POTASSIUM,[1],6.17 MEQ/L
same,SODIUM,[1],143.57 MEQ/L
same,TOTAL BILIRUBIN,[1],0.2 mg/dL
same,TOTAL PROTEIN,[1],5.87 G/DL
same,URIC ACID,[1],1.93 mg/dL
same,ABSOLUTE BASOPHIL,[2],0 CELLS/uL
same,ABSOLUTE EOSINOPHIL,[2],126 CELLS/uL
same,ABSOLUTE LYMPHOCYTE,[2],13647.33 CELLS/uL
same,ABSOLUTE MONOCYTE,[2],360 CELLS/uL
same,ABSOLUTE SEGMENTED NEUTROPHIL,[2],1833.33 CELLS/uL
same,BASOPHIL,[2],0%
same,EOSINOPHIL,[2],0.67%
same,ERYTHROCYTE COUNT,[2],5.77 x10E6/uL
same,HEMATOCRIT,[2],35.7%
same,HEMOGLOBIN,[2],13.3 G/DL
same,LEUKOCYTE COUNT,[2],15.97 x10E3/uL
same,LYMPHOCYTE,[2],85.67%
same,MEAN CORPUSCULAR HEMOGLOBIN,[2],23.07 pg
same,MEAN CORPUSCULAR HEMOGLOBIN CONCENTRATION,[2],37.23 G/DL
same,MEAN CORPUSCULAR VOLUME,[2],61.97 fL
same,MONOCYTE,[2],2.33%
same,NEUTROPHIL,[2],11.33%
same,NUCLEATED RED BLOOD CELLS,[2],0 /100WBC
same,PLATELET COUNT,[2],1055 x10E3/uL
same,ALANINE AMINOTRANSFERASE,[2],66 u/L
same,ALBUMIN,[2],3.93 G/DL
same,ALKALINE PHOSPHATASE,[2],319 u/L
same,ASPARTATE AMINOTRANSFERASE,[2],94 u/L
same,BLOOD UREA NITROGEN,[2],16.33 mg/dL
same,CARBON DIOXIDE,[2],27 mmol/L
same,CHLORIDE,[2],102.33 MEQ/L
same,CHOLESTEROL,[2],67.33 mg/dL
same,CREATINE PHOSPHOKINASE,[2],359 u/L
same,CREATININE,[2],0.19 mg/dL
same,GLUCOSE,[2],160.33 mg/dL
same,LACTATE DEHYDROGENASE,[2],379.33 u/L
same,LIPASE,[2],9.67 u/L
same,PHOSPHORUS,[2],11.53 mg/dL
same,POTASSIUM,[2],6.9 MEQ/L
same,SODIUM,[2],144.43 MEQ/L
same,TOTAL BILIRUBIN,[2],0.2 mg/dL
same,TOTAL PROTEIN,[2],5.37 G/DL
same,URIC ACID,[2],1.47 mg/dL
same,ABSOLUTE BASOPHIL,[3],0 CELLS/uL
same,ABSOLUTE EOSINOPHIL,[3],113 CELLS/uL
same,ABSOLUTE LYMPHOCYTE,[3],13989.33 CELLS/uL
same,ABSOLUTE MONOCYTE,[3],257.33 CELLS/uL
same,ABSOLUTE SEGMENTED NEUTROPHIL,[3],2073.67 CELLS/uL
same,BASOPHIL,[3],0%
same,EOSINOPHIL,[3],0.67%
same,ERYTHROCYTE COUNT,[3],6.2 x10E6/uL
same,HEMATOCRIT,[3],37.73%
same,HEMOGLOBIN,[3],13.77 G/DL
same,LEUKOCYTE COUNT,[3],16.43 x10E3/uL
same,LYMPHOCYTE,[3],85.33%
same,MEAN CORPUSCULAR HEMOGLOBIN,[3],22.23 pg
same,MEAN CORPUSCULAR HEMOGLOBIN CONCENTRATION,[3],36.53 G/DL
same,MEAN CORPUSCULAR VOLUME,[3],60.93 fL
same,MONOCYTE,[3],1.67%
same,NEUTROPHIL,[3],12.33%
same,NUCLEATED RED BLOOD CELLS,[3],0 /100WBC
same,PLATELET COUNT,[3],1216 x10E3/uL
same,ALANINE AMINOTRANSFERASE,[3],65.33 u/L
same,ALBUMIN,[3],4.53 G/DL
same,ALKALINE PHOSPHATASE,[3],452 u/L
same,ASPARTATE AMINOTRANSFERASE,[3],90.33 u/L
same,BLOOD UREA NITROGEN,[3],19.67 mg/dL
same,CARBON DIOXIDE,[3],26.67 mmol/L
same,CHLORIDE,[3],105 MEQ/L
same,CHOLESTEROL,[3],58.33 mg/dL
same,CREATINE PHOSPHOKINASE,[3],293.67 u/L
same,CREATININE,[3],0.22 mg/dL
same,GLUCOSE,[3],163.33 mg/dL
same,LACTATE DEHYDROGENASE,[3],355 u/L
same,LIPASE,[3],9 u/L
same,PHOSPHORUS,[3],11.6 mg/dL
same,POTASSIUM,[3],6.5 MEQ/L
same,SODIUM,[3],145.13 MEQ/L
same,TOTAL BILIRUBIN,[3],0.13 mg/dL
same,TOTAL PROTEIN,[3],6.27 G/DL
same,URIC ACID,[3],1.97 mg/dL

# — ChEMBL document CHEMBL3885881, “DrugMatrix”
